Laboratory results published in US20250195515A1, “COMPOSITION FOR TREATING THE EYE” (BITOP AG, priority 2014, published 2025).

Tests used:
[1] = Compression of meibomian lipid monolayers on PBS subphase with different ectoine concentrations (surface pressure-area isotherms); type: physicochemical, human
Protocol: Meibomian lipids were obtained from the meibomian glands of four healthy volunteers. The lipids were dissolved in chloroform/methanol (1:1, v/v) and applied to an aqueous subphase (PBS, phosphate-buffered saline solution, pH 7.4, T=20° C.). After an equilibration time of 10-15 min, the monolayers were compressed at 2.9 cm^2/min. The subphase was provided with different ectoine concentrations. The result of the compression of the lipid film on a PBS subphase without ectoine is depicted in FIG. 2A. No phase transitions are observed up to a surface pressure of 20 mN/m. […] Ectoine therefore enlarges the spaces between the molecules.

[2] = Atomic force microscopy (AFM) topography of Langmuir-Blodgett-transferred meibomian lipid layers; type: physicochemical, human
Protocol: The topography of the surface of the lipid layers was examined with the aid of an atomic force microscope (atomic force microscopy, AFM). To this end, the lipid layer was transferred to a solid surface using the Langmuir-Blodgett technique; thereafter, the AFM measurements were carried out at pressures of 5 mN/m, 20 mN/m and 23.5 mN/m and 20° C. At a relatively low pressure of 5 mN/m, it was possible to observe small fibrous structures of up to approx. 5 nm in height distributed over the entire area. Layers of hydrophobic lipids such as cholesteryl esters and triglycerides might be involved here. At higher pressures of 20 mN/m, the number of fibrous structures increased.
In the presence of 100 mM ectoine, droplet-type structures of up to approx. 300 nm in height were observed. At higher ectoine concentrations, the diameter of the droplet-type structures increased.

[3] = tested on: patients suffering from a mild to moderate form of keratoconjunctivitis sicca; experiment: Clinical study, tear break-up time (TBUT); type: in vivo, human
Protocol: (§1) In one study, 64 patients suffering from a mild to moderate form of keratoconjunctivitis sicca were examined. […] The majority (72%) of the patients were female. For at least one eye in each case, the tear break-up time (TBUT), i.e., the time until dry spots reappear on the cornea after blinking, was less than 10 sec. The TBUT was used as the main parameter for the treatment assessment. Over a period of 28 days, 34 patients were treated with an ectoine-containing composition and the other 30 patients with hyaluronic acid as reference. 59 of the patients finished the study as planned; 5 patients left prematurely. On average, the TBUT improved within the 28-day observation period by 2.6 sec (p=0.0011) for ectoine-treated patients and by 1.1 sec (p=0.1686) for the hyaluronic acid-treated patients.

[4] = tested on: patients suffering from a mild to moderate form of keratoconjunctivitis sicca; experiment: Clinical study, OSDI (ocular surface disease index) quality of life; type: in vivo, human; conditions: within the 28-day observation period
Protocol: as §1, with “The quality of life of” for “On average,”, “patients was determined on” for “TBUT improved within”, “basis of the OSDI (ocular surface disease index). The OSDI assessment consists of 12 questions answered by the patients on a scale of 0 to 4 (0=never; 4=always). The higher the OSDI value, the stronger the impairment of the daily life of the disease. Within the” for “28-day”, “period, it was possible to observe a decrease of 17.7 points in the case of the” for “period by 2.6 sec (p=0.0011) for”, “of 17.2 points in the case of” for “by 1.1 sec (p=0.1686) for”

[5] = tested on: patients suffering from a mild to moderate form of keratoconjunctivitis sicca; experiment: Clinical study, lacrimation according to Schirmer's test II; type: in vivo, human
Protocol: In one study, 64 patients suffering from a mild to moderate form of keratoconjunctivitis sicca were examined. […] The majority (72%) of the patients were female. For at least one eye in each case, the tear break-up time (TBUT), i.e., the time until dry spots reappear on the cornea after blinking, was less than 10 sec. The TBUT was used as the main parameter for the treatment assessment. Over a period of 28 days, 34 patients were treated with an ectoine-containing composition and the other 30 patients with hyaluronic acid as reference. 59 of the patients finished the study as planned; 5 patients left prematurely. Lacrimation was examined according to the Schirmer's test II. This was lower for the ectoine patients than for the hyaluronic acid patients both at the start (8.8 mm/5 min compared to 16.0 mm/5 min) and at the end (10.6 mm/5 min compared to 16.8 mm/5 min) of the treatment, it being possible to observe a more distinct improvement for the ectoine-treated patients than for the hyaluronic acid-treated patients (1.8 mm/5 min compared to 0.8 mm/5 min).

[6] = tested on: patients suffering from a mild to moderate form of keratoconjunctivitis sicca; type: in vivo, human; conditions: for tolerability: human, in vivo
Protocol: as §1, with “prematurely. […] Especially” for “prematurely. On average,”, “the sensation of foreign bodies and the sensation of tired eyes were rated as” for “the TBUT”, “improved following” for “improved within”, “the treatment. 78.8% of the” for “the 28-day observation period by 2.6 sec (p=0.0011) for”, “and 71.4% of” for “and by 1.1 sec (p=0.1686) for”, “acid-treated patients would continue use.” for “acid-treated patients.”

| Compound | hysteresis of compression-expansion curves ([1]; ectoine in PBS subphase vs without ectoine) | shift of the compression isotherm (area per molecule) ([1]; ectoine in PBS subphase, pH 7.4, 20° C., vs subphase without ectoine, effect is concentration-dependent) | formation of droplet-type structures ([2]; 50 mM ectoine, AFM) | thickness of the lipid layer at the sites of the droplet-type clusters ([2]; 100 mM ectoine in the lacrimal fluid (model of FIG. 1B), approx. 20 nm in the absence of ectoine) | height of droplet-type structures ([2]; 100 mM ectoine, AFM, 20° C.) | diameter of the droplet-type structures ([2]; ectoine concentrations higher than 100 mM, AFM) | improvement of TBUT in patients with severe keratoconjunctivitis sicca and TBUT<5 sec ([3]; 28 days, ectoine compared with hyaluronic acid) | improvement of TBUT on average ([3]; within the 28-day observation period) | decrease of OSDI [4] | lacrimation, Schirmer's test II, at the end of the treatment ([5]; end of the 28-day treatment) | improvement of lacrimation, Schirmer's test II ([5]; end vs start of the 28-day treatment) | lacrimation, Schirmer's test II, at the start of the treatment ([5]; start of the treatment (baseline)) | estimation of the effectiveness of the treatment according to patients' estimates ([6]; after 28-day treatment) | tolerability [6] |
| --- | --- | --- | --- | --- | --- | --- | --- | --- | --- | --- | --- | --- | --- | --- |
| CC1=N[C@H](C(=O)O)CCN1 [ectoine, (S)-2-methyl-1,4,5,6-tetrahydropyrimidine-4-carboxylic acid] | no significant differences | isotherm shifts in the direction of a larger area per molecule | comparatively scattered and distinctly smaller | approx. 200 nm | ≤ 300 nm | increased | stronger improvement | 2.6 s | 17.7 points | 10.6 mm/5 min | 1.8 mm/5 min | 8.8 mm/5 min | 0.9 points | generally well tolerated |
| hyaluronic acid [reference compound] |  |  |  |  |  |  |  |  |  |  |  |  |  | generally well tolerated |
